Measurements as given in patent US20250332132A1, “SELENIUM-CONTAINING SUBSTANCE FOR TREATMENT OF CANCER” (SHANGHAI INSTITUTE OF NUTRITION AND HEALTH, CHINESE ACADEMY …, priority 2022, published 2025).

Columns and labels:
[1] = test system: LLC cell subcutaneous xenograft tumors; assay: Subcutaneous LLC xenograft tumor model in mice (tumor growth, volume, weight); format: in vivo, mouse (C57BL/6J)
Method: FIG. 1 panel A: Experimental pattern diagram. Mice were first subcutaneously injected with LLC cells (2*10^5 cells per mouse) to establish xenograft tumors. After 14 days of tumor formation, mice received SeMet treatment for two weeks, with intraperitoneal injection of SeMet at a dose of 2 mg/kg, 5 times per week; FIG. 1 panel B: Tumor growth statistical curve in mice; FIG. 1 panel C: Representative photographic results of mouse tumors.
FIG. 5 illustrates the therapeutic effects of SeMet and PD-1 antibody on LLC cell subcutaneous xenograft tumors in mice. FIG. 5 panel A: Experimental pattern diagram. Mice were first subcutaneously injected with LLC cells (2*10^5 cells per mouse) to establish xenograft tumors. After 14 days of tumor formation, mice were treated with SeMet and PD-1 antibody alone or in combination by intraperitoneal injection for two weeks. The dosage of SeMet was 2 mg/kg, 5 times per week; the dosage of PD-1 antibody was 200 μg per mouse, 2 times per week; FIG. 5 panel B: Tumor growth statistical curve in mice; FIG. 5 panel C: Ratio of tumor to body weight in mice; FIG. 5 panel D: Representative photographic results of mouse tumors.
All animal experiments were approved by the Animal Ethics Committee of the Institute of Nutrition Sciences, Shanghai Institutes for Biological Sciences, Chinese Academy of Sciences, and were conducted in accordance with the protocols approved by the Animal Care and Use Committee of Shanghai Institutes for Biological Sciences. Six-week-old C57BL/6J mice were purchased from Shanghai Slake Experimental Animal Co., Ltd. and were housed in an SPF-grade animal facility. […] The tumor size was measured every two days, and the tumor volume (mm^3) was calculated using the following formula: ½×a×b^2, wherein a was the long diameter and b was the short diameter of the tumor. After the mice were euthanized, the tumors were excised, weighed, and the average weight of tumors in each group was calculated. The excised tumors were fixed with paraformaldehyde for subsequent immunohistochemical or immunofluorescence analysis.
C57BL/6J mice were subcutaneously injected with LLC cells (2*10^5 cells per mouse) to establish xenograft tumors. After 14 days of tumor formation, mice received SeMet treatment for two weeks (FIG. 1 panel A).
Subsequently, we investigated the therapeutic effects of SeMet and PD-1 antibody used alone or in combination on LLC cell subcutaneous xenograft tumors in mice. Mice were first subcutaneously injected with LLC cells (2*10^5 cells per mouse) to establish xenograft tumors. After 14 days of tumor formation, mice were treated with SeMet and PD-1 antibody alone or in combination by intraperitoneal injection for two weeks. The dosage and frequency of SeMet were the same as previously described, while the dosage of PD-1 antibody was 200 μg per mouse, 2 times per week (FIG. 5 panel A).
An L-selenomethionine was used to construct an N-acetyl-selenomethionine (N-Ac-SeMet) to improve its stability. To verify the therapeutic effect of the N-acetyl-selenomethionine on lung cancer, C57BL/6J mice were subcutaneously injected with LLC cells (2*10^5 cells per mouse) to establish xenograft tumors and divided into four groups: control group, selenomethionine (SeMet) treated group, N-acetyl-selenomethionine (N-Ac-SeMet) treated group, and anti-PD1 treated group. After 14 days of tumor formation, the mice in each group were treated for two weeks.

[2] = test system: CD45+ immune cells, CD25+Foxp3+ Treg cells, IL-17a+ TH17 cells; assay: Flow cytometry of immune cells in LLC xenograft tumors; format: in vivo, mouse (C57BL/6J)
Method: Preparation of single-cell suspension from mouse tumor cells: 200 mg of mouse tumor tissue was obtained, cut into pieces and added to 2.43 ml of tumor digestion solution, followed by digestion in a 37° C. shaking water bath for 30 minutes. Flow cytometry staining included surface antigen staining and intracellular factor (cytokines and transcription factors) staining. For the cytokine detection, broad-spectrum activation inhibitors (PMA, ionomycin, or BFA, added at a ratio of 1:1000) were first prepared with the RPMI-1640 medium. 100 μl of each reagent was added to resuspend the cells, and the cells were then transferred to a 96-well plate and treated in a 37° C. cell incubator for 4-6 h. Subsequently, 200 μl of FACS buffer was added, and the cells were pipetted to mix evenly before transferred to a 1.5 ml eppendorf tube. The tube was centrifuged at 350 g for 5 minutes, and the supernatant was carefully aspirated. Cells were resuspended in 100 μl of PBS. For the surface antigen staining, the above steps were omitted. The cell suspension was placed on ice, and live/dead dye (at a ratio of 1:1000) was added. Staining was performed on ice in darkness for 30 minutes. Cells were washed with 1 ml of PBS, centrifuged at 350 g for 5 minutes, and the supernatant was carefully removed. The cell precipitate was resuspended in the FACS buffer, and the blocking antibody CD16/CD32 was added at a ratio of 1:200. The mixture was placed on ice in darkness for 30 minutes. Subsequently, surface antibodies were added at a ratio of 1:200: CD45, CD3, CD4, and CD25 antibodies were sequentially added for Treg cell surface staining; CD45, CD3, and CD4 antibodies were sequentially added for Th17 cell staining. Incubation was performed on ice in darkness for 30 minutes. Cells were washed with 1 ml of the FACS buffer, then centrifuged at 350 g for 5 minutes, and the supernatant was carefully removed. For intracellular factor staining, 250 μl of the fixation/permeabilization solution was added, and the cells were incubated on ice in darkness for 2 h. Then, 1 ml of the fixation/permeabilization wash buffer was added, the cells were centrifuged at 500 g for 5 minutes, and the supernatant was carefully removed. Cells were resuspended in the fixation/permeabilization wash buffer, and intracellular antibodies Foxp3 and IL-17A were added at a ratio of 1:200. The cells were incubated on ice in darkness for 30 minutes. After washing with 1 ml of the FACS buffer and centrifugation at 500 g for 5 minutes, the supernatant was carefully removed. Cells were resuspended in 200 μl of the FACS buffer and prepared for flow cytometry analysis.

B16 melanoma cells = assay: Subcutaneous B16 melanoma xenograft tumor model in mice; format: in vivo, mouse (C57BL/6J); settings: C57BL/6J mice, B16 2*10^5 cells s.c.; treated two weeks from day 14; FIG. 10
Method: To verify the therapeutic effect of selenomethionine (SeMet) on melanoma, C57BL/6J mice were subcutaneously injected with B16 melanoma cells (2*10^5 cells per mouse) to establish xenograft tumors. After 14 days of tumor formation, the mice were treated with SeMet for two weeks (FIG. 10 panel A).

CD4 and Foxp3 = assay: qPCR of CD4 and Foxp3 expression in LLC xenograft tumors; format: in vivo, mouse (C57BL/6J); settings: vs control group, FIG. 7A
Method: After the cells were cultured or treated, the medium was discarded, and the cells were washed once with ice-cold PBS. Then, 1 mL of Trizol reagent was added, and the cells were completely blown down. If it was for the tissue, 10-20 mg of tissue was homogenized into a homogenate using a grinder, with the addition of steel beads and 1 mL of Trizol. 200 μL of chloroform was added into the cell or tissue homogenate in 1 mL of Trizol, mixed vigorously, and placed on ice for 5 minutes. The mixture was centrifuged at 12,000 rpm for 10 minutes at 4° C. Then, 400 μL of the supernatant was carefully aspirated and added to an equal volume of isopropanol, vigorously mixed, and placed on ice for 15 minutes and centrifuged again at 12,000 rpm for 10 minutes at 4° C. Afterwards, a white RNA precipitate was visible at the bottom. The supernatant was carefully discarded, and 1 ml of 75% ethanol (diluted with DEPC-treated water) was added. […] A certain volume of DEPC-treated water was added to dissolve the RNA, and the concentration was measured. […] The genomic DNA removal reaction system was as follows: According to the gene primers to be detected, the above-mentioned Mix without the cDNA template was prepared, mixed thoroughly, and kept on ice until use. […] The detection program was as follows: After detection, the relative gene expression levels were calculated using the 2^−┐┐T method.

[3] = Selenium content in subcutaneous xenograft tumors; format: in vivo, mouse; settings: mice, after SeMet treatment
[4] = test system: Treg cells, IL-17a-secreting TH17 cells; assay: Flow cytometry of Treg and TH17 cells in B16 xenograft tumors; format: in vivo, mouse (C57BL/6J)
Method: (§1) Preparation of single-cell suspension from mouse tumor cells: 200 mg of mouse tumor tissue was obtained, cut into pieces and added to 2.43 ml of tumor digestion solution, followed by digestion in a 37° C. shaking water bath for 30 minutes. Flow cytometry staining included surface antigen staining and intracellular factor (cytokines and transcription factors) staining. For the cytokine detection, broad-spectrum activation inhibitors (PMA, ionomycin, or BFA, added at a ratio of 1:1000) were first prepared with the RPMI-1640 medium. 100 μl of each reagent was added to resuspend the cells, and the cells were then transferred to a 96-well plate and treated in a 37° C. cell incubator for 4-6 h. Subsequently, 200 μl of FACS buffer was added, and the cells were pipetted to mix evenly before transferred to a 1.5 ml eppendorf tube. The tube was centrifuged at 350 g for 5 minutes, and the supernatant was carefully aspirated. Cells were resuspended in 100 μl of PBS. For the surface antigen staining, the above steps were omitted. The cell suspension was placed on ice, and live/dead dye (at a ratio of 1:1000) was added. Staining was performed on ice in darkness for 30 minutes. Cells were washed with 1 ml of PBS, centrifuged at 350 g for 5 minutes, and the supernatant was carefully removed. […]

[5] = test system: Treg cells, IL-17a-secreting TH17 cells; assay: Flow cytometry of Treg and TH17 cells in CT26 colon tumors; format: in vivo, mouse (BALB/C)
Method: as §1

PD-L1 = assay: qPCR, WB and immunofluorescence of PD-L1 expression in LLC xenograft tumors; format: in vivo, mouse (C57BL/6J); settings: immunofluorescence, FIG. 4
selenoproteins = assay: qPCR / Western blot of selenoprotein expression in LLC xenograft tumors; format: in vivo, mouse (C57BL/6J)
colon cancer CT26 cells = assay: Orthotopic CT26 colon cancer model in mice; format: in vivo, mouse (BALB/C); settings: BALB/C mice, CT26 tumor pieces implanted orthotopically at cecal end; treatment from second day; effects similar to anti-PD1; FIG. 12 A-B
Excerpt: To verify the therapeutic effect of selenomethionine (SeMet) on colon cancer, BALB/C mice were subcutaneously inoculated with colon cancer CT26 cells. After subcutaneous xenograft tumors grew to a certain size, the tumors were cut into 1 mm*1 mm*1 mm pieces that were then orthotopically implanted at the cecal end of the mice. SeMet intervention was initiated on the second day after orthotopic tumor formation.

[6] = NSCLC subcutaneous xenograft tumor model, vs control group, summary statement
[7] = NSCLC subcutaneous xenograft tumor model, summary statement

## C[Se]CC[C@H](NC(C)=O)C(=O)O [N-Ac-SeMet, N-acetyl-selenomethionine]
[1]; LLC s.c. tumors, end of treatment, vs control, p<0.05, FIG. 8C
  average tumor weight: significantly lower than those in the control group
[1]; LLC s.c. tumors, end of treatment, vs control, p<0.05, FIG. 8D
  tumor weight-to-body weight ratio: significantly lower than those in the control group
[1]; LLC s.c. tumors, treated two weeks from day 14, Day 15, vs control, p<0.05, FIG. 8 A-B
  tumor volume: significantly smaller than that in the control group
[2]; LLC tumors, flow cytometry, FIG. 9 A-B
  proportion of Treg (CD25+Foxp3+) cells in tumors: significantly reduced
[2]; LLC tumors, flow cytometry, FIG. 9 C-D
  proportion of Th17 (IL-17a+) cells in tumors: significantly increased

## C[Se]CC[C@H](N)C(=O)O [SeMet, L-selenomethionine]
B16 melanoma cells
  growth of subcutaneous B16 tumors: effectively inhibited the growth of subcutaneous B16 tumors, with effects similar to anti-PD1 treatment
CD4 and Foxp3
  expression levels of CD4 and Foxp3 (mRNA): reduced
[3]
  selenium content in subcutaneous xenograft tumors: significantly increased
[4]; FIG. 11 A, C
  proportion of Treg cells: significantly reduced
[4]; FIG. 11 B, D
  proportion of IL-17a-secreting TH17 cells: significantly increased
[1]; C57BL/6J mice, LLC 2*10^5 cells s.c., after 14 days SeMet 2 mg/kg i.p. 5 times per week for two weeks, FIG. 1
  growth of subcutaneous LLC tumors (tumor growth curves): effectively inhibit the growth of subcutaneous LLC tumors
[1]; LLC s.c. tumors, i.p. two weeks from day 14, SeMet 2 mg/kg 5 times per week, PD-1 antibody 200 μg per mouse 2 times per week, alone or combined, vs control, FIG. 5B
  tumor growth: significantly reduced
[1]; [6]
  tumor mass: significantly reduced
  tumor volume: significantly reduced
[1]; [7]
  tumor growth: significantly inhibit tumor growth
  tumor volume and mass compared with the PD-1 group: no significant difference
[1]; same study as FIG. 5B, FIG. 5C
  ratio of tumor to body weight: validated this result
[1]; same study, FIG. 5D
  visual inspection of excised subcutaneous mouse tumors: significantly reduced
[5]; FIG. 12 C, E
  proportion of Treg cells: significantly reduced
[5]; FIG. 12 D, F
  proportion of IL-17a-secreting TH17 cells: increased
PD-L1
  expression of PD-L1: increased
[2]; LLC tumors digested into single cells, flow cytometry, FIG. 7 B-C
  number of CD45+ immune cells: significantly increased
[2]; LLC tumors, flow cytometry, FIG. 7 D-E
  proportion of CD25+Foxp3+ Treg cells: significantly reduced
[2]; LLC tumors, flow cytometry, FIG. 7 F-G
  proportion of IL-17a-secreting TH17 cells: significantly increased
[2]; NSCLC tissues, flow sorting, summary statement
  number of Treg cells infiltrating the tumor: significantly reduced
selenoproteins; LLC xenograft tumors, vs control group, WB, FIG. 3 M-N
  expression of SOD1 and GPX1 at the protein level: significant increase
selenoproteins; LLC xenograft tumors, vs control group, qPCR, FIG. 3 A-L
  expression of selenoproteins SOD1, SOD2, GPX1, GPX2, GPX4, Sephs2, Sepx1, SelS, SelP, Txnrd1, Txnrd2, Txnrd3 at the mRNA level: significant increase
selenoproteins; LLC xenograft tumors, vs control group, qPCR, FIG. 6
  expression of selenoproteins GPX1, GPX2, SOD1, SOD2, Sephs2, Sepx1, SelS, Txnrd1, Txnrd2, SelF, Selk, SelW, MT2 at the mRNA level: increased
selenoproteins; NSCLC tissues after treatment, summary statement
  levels of major selenoproteins, including GPX1, GPX4: significantly increased
Colon cancer CT26 cells
  colon cancer growth: effectively inhibited
